Numbers after ± are expanded uncertainties.
Assay: xn = mol fraction of the nth substance listed
Settings: 101 kPa, Liquid

CC(=O)N(C)C [N,N-dimethylethanamide] + CC#N
mass density [kg/m3]
Settings | 293.15 K | 298.15 K | 303.15 K | 308.15 K | 313.15 K | 318.15 K
x2 = 0 | 941 ± 0.9 | 936.5 ± 0.9 | 932 ± 1 | 927.6 ± 1 | 923.1 ± 1 | 918.6 ± 1.1
x2 = 0.0815 | 934.2 ± 0.9 | 929.7 ± 0.9 | 925.2 ± 1 | 920.7 ± 1 | 916.2 ± 1 | 911.7 ± 1.1
x2 = 0.1674 | 926.3 ± 0.9 | 921.8 ± 0.9 | 917.3 ± 0.9 | 912.8 ± 1 | 908.3 ± 1 | 903.9 ± 1.1
x2 = 0.2386 | 919.2 ± 0.9 | 914.7 ± 0.9 | 910.2 ± 0.9 | 905.7 ± 1 | 901.2 ± 1 | 896.8 ± 1.1
x2 = 0.3133 | 911.2 ± 0.8 | 906.7 ± 0.9 | 902.2 ± 0.9 | 897.7 ± 1 | 893.2 ± 1 | 888.8 ± 1
x2 = 0.3689 | 904.8 ± 0.8 | 900.3 ± 0.9 | 895.8 ± 0.9 | 891.3 ± 1 | 886.8 ± 1 | 882.4 ± 1
x2 = 0.4223 | 898.3 ± 0.8 | 893.8 ± 0.9 | 889.3 ± 0.9 | 884.8 ± 0.9 | 880.3 ± 1 | 875.8 ± 1
x2 = 0.4722 | 891.8 ± 0.8 | 887.3 ± 0.9 | 882.7 ± 0.9 | 878.2 ± 0.9 | 873.7 ± 1 | 869.2 ± 1
x2 = 0.5387 | 882.5 ± 0.8 | 877.9 ± 0.8 | 873.3 ± 0.9 | 868.8 ± 0.9 | 864.2 ± 1 | 859.7 ± 1
x2 = 0.581 | 876.1 ± 0.8 | 871.5 ± 0.8 | 866.9 ± 0.9 | 862.3 ± 0.9 | 857.7 ± 1 | 853.1 ± 1
x2 = 0.6379 | 866.9 ± 0.8 | 862.2 ± 0.8 | 857.6 ± 0.9 | 852.9 ± 0.9 | 848.3 ± 1 | 843.6 ± 1
x2 = 0.6794 | 859.7 ± 0.8 | 855 ± 0.8 | 850.2 ± 0.9 | 845.5 ± 0.9 | 840.8 ± 0.9 | 836.1 ± 1
x2 = 0.7236 | 851.5 ± 0.8 | 846.7 ± 0.8 | 841.9 ± 0.9 | 837.1 ± 0.9 | 832.3 ± 0.9 | 827.5 ± 1
x2 = 0.8071 | 833.9 ± 0.7 | 829 ± 0.8 | 824.1 ± 0.8 | 819.2 ± 0.9 | 814.3 ± 0.9 | 809.4 ± 1
x2 = 0.8776 | 817 ± 0.7 | 812 ± 0.8 | 807 ± 0.8 | 802 ± 0.8 | 797 ± 0.9 | 792 ± 0.9
x2 = 0.9424 | 799.4 ± 0.7 | 794.3 ± 0.7 | 789.2 ± 0.8 | 784.1 ± 0.8 | 779 ± 0.9 | 773.9 ± 0.9

NC=O [formamide] + CC#N
mass density [kg/m3]
Settings | 293.15 K | 298.15 K | 303.15 K | 308.15 K | 313.15 K | 318.15 K
x2 = 0 | 1133 ± 1.2 | 1129 ± 1.2 | 1125 ± 1.2 | 1121 ± 1.3 | 1117 ± 1.3 | 1113 ± 1.4
x2 = 0.0764 | 1104.3 ± 1.1 | 1099.7 ± 1.2 | 1095.1 ± 1.2 | 1090.5 ± 1.2 | 1085.9 ± 1.3 | 1081.3 ± 1.3
x2 = 0.161 | 1073.2 ± 1.1 | 1068.1 ± 1.1 | 1063 ± 1.2 | 1057.9 ± 1.2 | 1052.8 ± 1.2 | 1047.7 ± 1.3
x2 = 0.2485 | 1041.1 ± 1 | 1035.7 ± 1.1 | 1030.3 ± 1.1 | 1024.7 ± 1.2 | 1019.3 ± 1.2 | 1013.9 ± 1.2
x2 = 0.2976 | 1022.9 ± 1 | 1017.3 ± 1 | 1011.7 ± 1.1 | 1006.1 ± 1.1 | 1000.5 ± 1.2 | 994.9 ± 1.2
x2 = 0.3444 | 1005.4 ± 1 | 999.7 ± 1 | 994 ± 1.1 | 988.3 ± 1.1 | 982.6 ± 1.1 | 976.9 ± 1.2
x2 = 0.412 | 980.1 ± 1 | 974.3 ± 1 | 968.5 ± 1 | 962.7 ± 1.1 | 956.9 ± 1.1 | 951.1 ± 1.1
x2 = 0.4728 | 957.8 ± 0.9 | 951.9 ± 1 | 946 ± 1 | 940.2 ± 1 | 934.3 ± 1.1 | 928.3 ± 1.1
x2 = 0.5336 | 935.9 ± 0.9 | 930 ± 0.9 | 924.1 ± 1 | 918.2 ± 1 | 912.3 ± 1 | 906.4 ± 1.1
x2 = 0.5862 | 917.2 ± 0.9 | 911.3 ± 0.9 | 905.4 ± 0.9 | 899.6 ± 1 | 893.7 ± 1 | 887.8 ± 1.1
x2 = 0.6388 | 898.9 ± 0.8 | 893 ± 0.9 | 887.1 ± 0.9 | 881.3 ± 1 | 875.4 ± 1 | 869.5 ± 1
x2 = 0.6994 | 878 ± 0.8 | 872.2 ± 0.9 | 866.4 ± 0.9 | 860.6 ± 0.9 | 854.8 ± 1 | 849 ± 1
x2 = 0.7554 | 859.1 ± 0.8 | 853.4 ± 0.8 | 847.7 ± 0.9 | 842 ± 0.9 | 836.3 ± 0.9 | 830.4 ± 1
x2 = 0.8143 | 839.6 ± 0.8 | 834 ± 0.8 | 828.1 ± 0.8 | 822.6 ± 0.9 | 817 ± 0.9 | 811.4 ± 1
x2 = 0.8754 | 820 ± 0.7 | 814.5 ± 0.8 | 809 ± 0.8 | 803.5 ± 0.9 | 798 ± 0.9 | 792.5 ± 0.9
x2 = 0.9398 | 800.1 ± 0.7 | 794.7 ± 0.8 | 789.2 ± 0.8 | 783.8 ± 0.8 | 778.4 ± 0.9 | 773 ± 0.9
